According to patent US6261767A, “Method for the qualitative and quantitative detection of DNA damage” (Societe Francaise de Recherches et d'Investissements (SFRI), priority 1995, dated 2001):
Starred links: 1 amine or outer side, 2 acyl side, 3 side chain; linkers in the order of their positions; H or OH if unused. Positions of bridges follow the written chain, without caps; N, C: chain ends. Non-standard residues stand in square brackets, D forms with d. Residues, ends and D or L forms follow the SMILES beside them. Chains are numbered I, II in the order given. Actinocin(9to1) = Cc1c2oc3c(C)ccc(C(=O)[*:1])c3nc-2c(C(=O)[*:2])c(N)c1=O; NMeV = CN[C@H](C(=O)O)C(C)C; Sar = CNCC(=O)O

How the values were obtained:
[1] = system: repair activity of extracts from HeLa cells; assay: modulation (inhibition) of the repair activity of cellular extracts from HeLa cells on damaged DNA; assay type: biochemical; conditions: FIG. 9
Excerpt: The invention also provides a process for measuring the effect of modulation and the inhibitive effect of the repair of at least one molecule, which comprises the following steps:
preparation of damaged DNA fixed on a sensitized support,
action of a composition comprising at least one cellular extract having a repair activity on this DNA, said extract containing markers, and conjointly the action of at least one molecule having the power of modulating the repair action,
direct or indirect revelation of the markers that may be incorporated in the DNA, in the case of repair, and
comparative reading relative to a control specimen.
d/ Repair in the presence of a cellular extract and of agents of known type, comprising for example for a volume of reaction medium (RM) of 50 μl:
In the course of the repair step, see FIG. 1D, the molecules for which it is sought to show a modulator effect of the repair can be added. These molecules are preferably diluted in water or in dimethylsulfoxide (DMSO).

[2] = system: DNA damage generated by methylene blue; assay: antioxidant relative activity (R.A.) against DNA damage by photo-activated methylene blue; assay type: biochemical; conditions: summary of the R.A. table
Method: b/ Methylene blue is known to liberate by photo-activation, one atom of oxygen. For the tests to follow, methylene blue was subjected to radiation with visible light for 20 minutes with two bulb lamps of 100 W, a distance between the lamps and the support plates of 30 cm and a concentration of methylene blue of 50 ng/ml. The step of repair of the damage is carried out according to the information indicated above, with the use of the same reaction medium RM. In the same fashion, the plates, after the action of the reaction medium RM are washed three times with the washing solution indicated above, and incubated 15 minutes with a chemiluminescent substrate ("Lumi-Phos 530"). […] For the second test, with methylene blue, the relative activity RA has been calculated of an antioxidant which is equal to: [formula] in which formula: control RLU corresponds to the value of the signal of methylene blue alone subjected to radiation, test RLU corresponds to the value of the signal of methylene blue subjected to […] radiation plus an antioxidant molecule, and reference RLU corresponds to the value of the signal of the antioxidant molecule alone.

[3] = system: DNA damage generated by hydrogen peroxide; assay: inhibition of / antioxidant relative activity (R.A.) against DNA damage by hydrogen peroxide; assay type: biochemical; conditions: 10 μm metallic chelating agent

CCn1cc(C(=O)O)c(=O)c2ccc(C)nc21 [nalidixic acid]
inhibitor effect on the repair activity [1]: without effect

OO [hydrogen peroxide]
quantity for which the maximum ratio of repair is obtained (DNA (plasmid 2959 bp)): 0.27 mM

Vitamin A
antioxidant activity (in words) [2]: no antioxidizing effect

CC(=O)N(O)CCCCCNC(=O)CCC(=O)N(O)CCCCCNC(=O)CCC(=O)N(O)CCCCCN [mesylate deferroxamine]
inhibition of the effects of hydrogen peroxide (production of DNA damage) [3]: inhibits totally

COS(C)(=O)=O [MMS, methylmethanesulfonate]
effectiveness of damage as shown by the repair ratio (before vs after adsorption of DNA) (DNA (plasmid 2959 bp); MMS in contact with DNA before the adsorption step, FIG. 7): greater effectiveness of damage

COc1cccc2c1C(=O)c1c(O)c3c(c(O)c1C2=O)C[C@@](O)(C(=O)CO)C[C@@H]3O[C@H]1C[C@H](N)[C@H](O)[C@H](C)O1 [doxorubicine]
inhibitor effect on the repair activity [1]: dose- dependent inhibitor effect

Cc1c2oc3c(C)ccc(C(=O)N[C@@H]4C(=O)N[C@H](C(C)C)C(=O)N5CCC[C@H]5C(=O)N(C)CC(=O)N(C)[C@@H](C(C)C)C(=O)O[C@@H]4C)c3nc-2c(C(=O)N[C@@H]2C(=O)N[C@H](C(C)C)C(=O)N3CCC[C@H]3C(=O)N(C)CC(=O)N(C)[C@@H](C(C)C)C(=O)O[C@@H]2C)c(N)c1=O [actinomycin D] (I: T[dV]P[Sar][NMeV] / II: T[dV]P[Sar][NMeV]; ester I:1-I:C, II:1-II:C; linker I:N-II:N via Actinocin(9to1))
inhibitor effect on the repair activity [1]: dose- dependent inhibitor effect
